In patent US10538555B2, “Macrocyclic inhibitors of the PD-1/PD-L1 and CD80(B7-1)/PD-L1 protein/protein interactions” (BRISTOL-MYERS SQUIBB COMPANY, priority 2014, dated 2020):
*1 amine or outer side, *2 acyl side, *3 side chain or, on linkers, in order; H or OH if unused. Where a SMILES comes first, the peptide text is derived from it. Bridges are numbered along the chain shown (N, C = ends). [ ]: non-standard residue; d: D form. ξ: configuration not given here. X10 = CC(C)C[C@H](CC(=O)[C@H](Cc1cnc[nH]1)N[*:1])C(=O)[*:2]; Trp(1-CH2COOH) = N[C@@H](Cc1cn(CC(=O)O)c2ccccc12)C(=O)O; Phe(3,4-(OMe)2) = COc1ccc(C[C@H](N)C(=O)O)cc1OC; Phe(2,4-Cl2) = N[C@@H](Cc1ccc(Cl)cc1Cl)C(=O)O; Phe(3,4-F2) = N[C@@H](Cc1ccc(F)c(F)c1)C(=O)O; X8 = O=C([C@H](CC1CNc2ccccc21)N[*:1])[*:2]; Phe(4-Me) = Cc1ccc(C[C@H](N)C(=O)O)cc1; ξPro(4R-OH) = O=C(O)C1C[C@@H](O)CN1; Hyp = O=C(O)[C@@H]1C[C@@H](O)CN1; NMeAhp(2) = CCCCC[C@H](NC)C(=O)O; Aad = N[C@@H](CCCC(=O)O)C(=O)O; X9 = NN[C@H](N[*:1])C(=O)[*:2]; Thr(3ξ) = CC(O)[C@H](N)C(=O)O; NMeNle = CCCC[C@H](NC)C(=O)O; ξR = N=C(N)NCCCC(N)C(=O)O; NMeA = CN[C@@H](C)C(=O)O; Dab = NCC[C@H](N)C(=O)O; Dap = NC[C@H](N)C(=O)O; ξP = O=C(O)C1CCCN1

biological target: T1, Human PD-L1/PD-1 (Homo sapiens, UniProt Q9NZQ7); experiment: HTRF Human PD-L1/PD-1 binding assay (PD-1-Ig/PD-L1-His); conditions: PD-L1-His 10 nM, PD-1-Ig 20 nM; class symbol; read-out: HTRF Human PD-L1/PD-1 Binding Assay IC50 Range
T1 construct: TVMV protease cleavage site (C); made in house; host or cells: HEK293T cells
T1 sequence (Q9NZQ7 with tags, fused parts or gaps): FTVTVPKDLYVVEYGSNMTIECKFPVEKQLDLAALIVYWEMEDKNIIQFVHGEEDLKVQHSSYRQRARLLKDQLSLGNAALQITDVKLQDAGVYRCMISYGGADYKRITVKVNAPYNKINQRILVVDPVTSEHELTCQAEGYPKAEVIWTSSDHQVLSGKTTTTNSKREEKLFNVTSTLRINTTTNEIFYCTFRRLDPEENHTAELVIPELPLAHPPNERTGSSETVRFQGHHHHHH
Procedure, shortened: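 Truncated Fc-fused human PD-1 (aa 25-167) at 20 nM and His-tagged PD-L1 (aa 18-239) at 10 nM final are used, with peptides preincubated 15 min with PD-L1. Detection uses europium-cryptate anti-Ig and APC anti-His antibodies; 665/620 nm ratio.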

IC50 | Structure (SMILES)
1 to 9.9 nM | CCCC[C@H]1C(=O)N(C)[C@@H](CCCC)C(=O)N[C@@H](CCN)C(=O)N[C@H](C(=O)NCC(N)=O)CSCC(=O)N[C@@H](Cc2ccc(O)cc2)C(=O)N(C)[C@@H](C)C(=O)N[C@@H](CC(N)=O)C(=O)N2CCC[C@H]2C(=O)N[C@@H](Cc2cnc[nH]2)C(=O)N[C@@H](CCC(=O)O)C(=O)N2C[C@H](O)C[C@H]2C(=O)N[C@@H](Cc2c[nH]c3ccccc23)C(=O)N[C@@H](CCN)C(=O)N[C@@H](Cc2cn(CC(=O)O)c3ccccc23)C(=O)N1C [Example 6331] ({CH2CO}-Y[NMeA]NPHE[Hyp]W[Dab][Trp(1-CH2COOH)][NMeNle][NMeNle][Dab]CG-NH2; thioether N-14)
1 to 9.9 nM | CCCC[C@H]1C(=O)N(C)[C@@H](CCCC)C(=O)N[C@@H](CC(=O)O)C(=O)N[C@H](C(N)=O)CSCC(=O)N[C@@H](Cc2ccc(O)cc2)C(=O)N(C)[C@@H](C)C(=O)N[C@@H](CC(N)=O)C(=O)N2CCC[C@H]2C(=O)N[C@@H](CN)C(=O)N[C@@H](CC(C)C)C(=O)N2C[C@H](O)C[C@H]2C(=O)N[C@@H](Cc2c[nH]c3ccccc23)C(=O)N[C@@H](CO)C(=O)N[C@@H](Cc2cn(CC(=O)O)c3ccccc23)C(=O)N1C [Example 6334] ({CH2CO}-Y[NMeA]NP[Dap]L[Hyp]WS[Trp(1-CH2COOH)][NMeNle][NMeNle]DC-NH2; thioether N-14)
1 to 9.9 nM | CCCC[C@H]1C(=O)N(C)[C@@H](CCCC)C(=O)N[C@@H](CCC(=O)O)C(=O)N[C@H](C(=O)NCC(N)=O)CSCC(=O)N[C@@H](Cc2ccc(O)cc2)C(=O)N(C)[C@@H](C)C(=O)N[C@@H](CC(=O)O)C(=O)N2CCC[C@H]2C(=O)N[C@@H](Cc2cnc[nH]2)C(=O)N[C@@H](CCC(N)=O)C(=O)N2C[C@H](O)C[C@H]2C(=O)N[C@@H](Cc2c[nH]c3ccccc23)C(=O)N[C@@H](CO)C(=O)N[C@@H](Cc2cn(CC(=O)O)c3ccccc23)C(=O)N1C [Example 6335] ({CH2CO}-Y[NMeA]DPHQ[Hyp]WS[Trp(1-CH2COOH)][NMeNle][NMeNle]ECG-NH2; thioether N-14)
10 to 99.9 nM | CCCC[C@H]1C(=O)N(C)[C@@H](CCCC)C(=O)N[C@@H](CCCNC(=N)N)C(=O)N[C@H](C(=O)NCC(N)=O)CSCC(=O)N[C@@H](Cc2ccc(O)cc2)C(=O)N(C)[C@@H](C)C(=O)N[C@@H](CC(N)=O)C(=O)N2CCC[C@H]2C(=O)N[C@@H](Cc2cnc[nH]2)C(=O)N[C@@H](CCCCN)C(=O)N2C[C@H](O)C[C@H]2C(=O)N[C@@H](Cc2c[nH]c3ccccc23)C(=O)N[C@@H](CO)C(=O)N[C@@H](Cc2cn(CC(=O)O)c3ccccc23)C(=O)N1C [Example 6338] ({CH2CO}-Y[NMeA]NPHK[Hyp]WS[Trp(1-CH2COOH)][NMeNle][NMeNle]RCG-NH2; thioether N-14)
1 to 9.9 nM | CCCC[C@H]1C(=O)N(C)[C@@H](CCCC)C(=O)N[C@@H](CCC(=O)O)C(=O)N[C@H](C(=O)NCC(N)=O)CSCC(=O)N[C@@H](Cc2ccc(O)cc2)C(=O)N(C)[C@@H](C)C(=O)N[C@@H](CC(N)=O)C(=O)N2CCCC2C(=O)N[C@@H](CN)C(=O)N[C@@H](CC(C)C)C(=O)N2C[C@H](O)C[C@H]2C(=O)N[C@@H](Cc2c[nH]c3ccccc23)C(=O)N[C@@H](CCN)C(=O)N[C@@H](Cc2cn(CC(=O)O)c3ccccc23)C(=O)N1C (stereo partly drawn) [Example 6344] ({CH2CO}-Y[NMeA]N[ξP][Dap]L[Hyp]W[Dab][Trp(1-CH2COOH)][NMeNle][NMeNle]ECG-NH2; thioether N-14)
10 to 99.9 nM | CCCC[C@H]1C(=O)N(C)[C@@H](CCCC)C(=O)N[C@@H](CC(C)C)C(=O)N[C@H](C(=O)NCC(N)=O)CSCC(=O)N[C@@H](Cc2ccc(O)cc2)C(=O)N(C)[C@@H](C)C(=O)N[C@@H](CC(=O)O)C(=O)N2CCC[C@H]2C(=O)N[C@@H](Cc2cnc[nH]2)C(=O)N[C@@H](CCC(N)=O)C(=O)N2C[C@H](O)C[C@H]2C(=O)N[C@@H](Cc2c[nH]c3ccccc23)C(=O)N[C@@H](CCN)C(=O)N[C@@H](Cc2cn(CC(=O)O)c3ccccc23)C(=O)N1C [Example 6416] ({CH2CO}-Y[NMeA]DPHQ[Hyp]W[Dab][Trp(1-CH2COOH)][NMeNle][NMeNle]LCG-NH2; thioether N-14)
10 to 99.9 nM | CCCC[C@H]1C(=O)N(C)[C@@H](CCCC)C(=O)NC(CCCNC(=N)N)C(=O)N[C@H](C(=O)NCC(N)=O)CCCC(=O)N[C@@H](Cc2ccc(O)cc2)C(=O)N(C)[C@@H](C)C(=O)N[C@@H](CC(N)=O)C(=O)N2CCC[C@H]2C(=O)N[C@@H](CN)C(=O)N[C@@H](CC(C)C)C(=O)N2C[C@H](O)CC2C(=O)N[C@@H](Cc2c[nH]c3ccccc23)C(=O)N[C@@H](CO)C(=O)N[C@@H](Cc2c[nH]c3ccccc23)C(=O)N1C (stereo partly drawn) [Example 7067] (Y[NMeA]NP[Dap]L[ξPro(4R-OH)]WSW[NMeNle][NMeNle][ξR][Aad]G-NH2; lactam N-14)
10 to 99.9 nM | CCCC[C@H]1C(=O)N(C)[C@@H](CCCC)C(=O)N[C@@H](CCCNC(=N)N)C(=O)N[C@H](C(=O)NCC(N)=O)CSCC(=O)N[C@@H](Cc2ccc(F)c(F)c2)C(=O)N(C)[C@@H](C)C(=O)N[C@@H](CC(N)=O)C(=O)N2CCC[C@H]2C(=O)N[C@@H](CN)C(=O)N[C@@H](CC(C)C)C(=O)N2C[C@H](O)C[C@H]2C(=O)N[C@@H](Cc2c[nH]c3ccccc23)C(=O)N[C@@H](CO)C(=O)N[C@@H](Cc2c[nH]c3ccccc23)C(=O)N1C [Example 7068] ({CH2CO}-[Phe(3,4-F2)][NMeA]NP[Dap]L[Hyp]WSW[NMeNle][NMeNle]RCG-NH2; thioether N-14)
1 to 9.9 nM | CCCC[C@H]1C(=O)N(C)[C@@H](CCCC)C(=O)N[C@@H](CCCNC(=N)N)C(=O)N[C@H](C(=O)NCC(N)=O)CSCC(=O)N[C@@H](Cc2ccc(Cl)cc2Cl)C(=O)N(C)[C@@H](C)C(=O)N[C@@H](CC(N)=O)C(=O)N2CCC[C@H]2C(=O)N[C@@H](CN)C(=O)N[C@@H](CC(C)C)C(=O)N2C[C@H](O)C[C@H]2C(=O)N[C@@H](Cc2c[nH]c3ccccc23)C(=O)N[C@@H](CO)C(=O)N[C@@H](CC2CNc3ccccc32)C(=O)N1C (stereo partly drawn) [Example 7069] ({CH2CO}-[Phe(2,4-Cl2)][NMeA]NP[Dap]L[Hyp]WS[X8][NMeNle][NMeNle]RCG-NH2; thioether N-14)
1 to 9.9 nM | CCCC[C@H]1C(=O)N(C)[C@@H](CCCC)C(=O)N[C@@H](CCCNC(=N)N)C(=O)N[C@H](C(=O)NCC(N)=O)CSCC(=O)N[C@@H](Cc2ccc(C)cc2)C(=O)N(C)[C@@H](C)C(=O)N[C@@H](CC(N)=O)C(=O)N2CCC[C@H]2C(=O)N[C@@H](CN)C(=O)N[C@@H](CC(C)C)C(=O)N2C[C@H](O)C[C@H]2C(=O)N[C@@H](Cc2c[nH]c3ccccc23)C(=O)N[C@@H](CO)C(=O)N[C@@H](Cc2c[nH]c3ccccc23)C(=O)N1C [Example 7070] ({CH2CO}-[Phe(4-Me)][NMeA]NP[Dap]L[Hyp]WSW[NMeNle][NMeNle]RCG-NH2; thioether N-14)
1 to 9.9 nM | CCCC[C@H]1C(=O)N(C)[C@@H](CCCC)C(=O)N[C@@H](CCCNC(=N)N)C(=O)N[C@H](C(=O)NCC(N)=O)CSCC(=O)N[C@@H](Cc2ccc(C)cc2)C(=O)N(C)[C@@H](C)C(=O)N[C@@H](CC(N)=O)C(=O)N2CCC[C@H]2C(=O)N[C@@H](Cc2cnc[nH]2)C(=O)C[C@@H](CC(C)C)C(=O)N2C[C@H](O)C[C@H]2C(=O)N[C@@H](Cc2c[nH]c3ccccc23)C(=O)N[C@@H](CO)C(=O)N[C@@H](Cc2c[nH]c3ccccc23)C(=O)N1C [Example 7071] ({CH2CO}-[Phe(4-Me)][NMeA]NP[X10][Hyp]WSW[NMeNle][NMeNle]RCG-NH2; thioether N-13)
1 to 9.9 nM | CCCC[C@H]1C(=O)N(C)[C@@H](CCCC)C(=O)N[C@@H](CCCNC(=N)N)C(=O)N[C@H](C(=O)NCC(N)=O)CSCC(=O)N[C@@H](Cc2ccc(OC)c(OC)c2)C(=O)N(C)[C@@H](C)C(=O)N[C@@H](CC(N)=O)C(=O)N2CCC[C@H]2C(=O)N[C@@H](Cc2cnc[nH]2)C(=O)N[C@@H](CC(C)C)C(=O)N2C[C@H](O)C[C@H]2C(=O)N[C@@H](Cc2c[nH]c3ccccc23)C(=O)N[C@@H](CO)C(=O)N[C@@H](Cc2c[nH]c3ccccc23)C(=O)N1C [Example 7072] ({CH2CO}-[Phe(3,4-(OMe)2)][NMeA]NPHL[Hyp]WSW[NMeNle][NMeNle]RCG-NH2; thioether N-14)
1 to 9.9 nM | CCCC[C@H]1C(=O)N(C)[C@@H](CCCC)C(=O)N[C@@H](CCCNC(=N)N)C(=O)N[C@H](C(=O)NCC(N)=O)CSCC(=O)N[C@@H](Cc2ccc(O)cc2)C(=O)N(C)[C@@H](C)C(=O)N[C@@H](CC(N)=O)C(=O)N2CCC[C@H]2C(=O)N[C@@H](NN)C(=O)N[C@@H](CC(C)C)C(=O)N2C[C@H](O)C[C@H]2C(=O)N[C@@H](Cc2c[nH]c3ccccc23)C(=O)N[C@@H]([C@@H](C)O)C(=O)N[C@@H](Cc2c[nH]c3ccccc23)C(=O)N1C [Example 7073] ({CH2CO}-Y[NMeA]NP[X9]L[Hyp]WTW[NMeNle][NMeNle]RCG-NH2; thioether N-14)
1 to 9.9 nM | CCCC[C@H]1C(=O)N(C)[C@@H](CCCC)C(=O)N[C@@H](CCCNC(=N)N)C(=O)N[C@H](C(=O)NCC(N)=O)CSCC(=O)N[C@@H](Cc2ccc(O)cc2)C(=O)N(C)[C@@H](C)C(=O)N[C@@H](CC(N)=O)C(=O)N2CCC[C@H]2C(=O)N[C@@H](Cc2cnc[nH]2)C(=O)N[C@@H](CC(C)C)C(=O)N2C[C@H](O)C[C@H]2C(=O)N[C@@H](Cc2c[nH]c3ccccc23)C(=O)N[C@@H](C(C)O)C(=O)N[C@@H](Cc2c[nH]c3ccccc23)C(=O)N1C (stereo partly drawn) [Example 7075] ({CH2CO}-Y[NMeA]NPHL[Hyp]W[Thr(3ξ)]W[NMeNle][NMeNle]RCG-NH2; thioether N-14)

same assay, conditions: PD-L1-His 10 nM, PD-1-Ig 20 nM; read-out: HTRF Human PD-L1/PD-1 Binding Assay IC50

IC50 | Structure (SMILES)
177 nM | CCCCC[C@H]1C(=O)N[C@@H](CC(C)C)C(=O)N[C@H](C(=O)NCC(N)=O)CSCC(=O)N[C@@H](Cc2ccc(O)cc2)C(=O)N(C)[C@@H](C)C(=O)N[C@@H](CC(N)=O)C(=O)N2CCC[C@H]2C(=O)N[C@@H](Cc2cnc[nH]2)C(=O)N[C@@H](CCC(N)=O)C(=O)N2C[C@H](O)C[C@H]2C(=O)N[C@@H](Cc2c[nH]c3ccccc23)C(=O)N[C@@H](CCN)C(=O)N[C@@H](Cc2cn(CC(=O)O)c3ccccc23)C(=O)N(C)[C@@H](CCCC)C(=O)N1C [Example 6415] ({CH2CO}-Y[NMeA]NPHQ[Hyp]W[Dab][Trp(1-CH2COOH)][NMeNle][NMeAhp(2)]LCG-NH2; thioether N-14)
